Patent US20260216141A1, “NECROSIS INHIBITOR” (LINKGEVITY LIMITED, priority 2023, published 2026)
Entries after “also recorded” stand apart in the source; their conditions may differ.

Experiments:
[1] = tested on: C. elegans; experiment: C. elegans movement analysis post stress; type: in vivo, Caenorhabditis elegans; conditions: EGTA 2500 μM in liposomes 3 hrs prior stress; cold, heat, oxidative and toxin stress
Description: Movement was scored according to an adapted methodology (from Herndon et al., 2002). Briefly, animals were marked as either: normal movement; or defective movement. Defective movement was defined as worms that are stationary unless touched with a pick, in which case they may only move a few […] forward before stopping again or they may not move at all. 100 animals were used per trial and the percentage of worms with defective movement was scored.
According to the protocol in Shibamura et al., 2009, drug was dissolved in MilliQ water and encapsulated in liposomes. Drug used was EGTA, at a final concentration of 2500 μM. Briefly, L-a-phosphatidylcholine (LαPC) was used to prepare liposomes by first dissolving LαPC in distilled water at the concentration of 96 mg/ml. A ×2 concentration of drug solution was mixed with LαPC to a 1:1 ratio and heated to 65° C. Drug-LαPC solution was then converted into liposomes using a mini-Avanti extruder a 100 nm pore size polycarbonate membrane. MilliQ water encapsulated in liposomes was used a as the empty vector control. Following preparation, 25 μl of the liposome drug solution was spread onto a 25 μl spot OP50 lawn on NGM plates and worms were then picked onto the plates.
The percentage of animals with this defective movement were scored post stress.

[2] = tested on: D. melanogaster; experiment: Drosophila cold/freeze stress survival; type: in vivo, Drosophila melanogaster; conditions: fed 12 hrs food containing 2500 μM EGTA; 0 degrees for 10 min
Protocol: Animals were under standard culture conditions. On day 1 of adulthood, they were starved for 8 hrs, then fed 12 hrs+/−EGTA 2500 μM. Following this, the animals were moved to 0° C. for 10 min and then recovered and survival measured.
Fruit flies, Drosophila melanogaster, were likewise exposed to heat and cold stress. […]. Flies were starved for a short period of 8 hrs and then fed for 12 hrs yeast containing high doses of a calcium chelating agent to ensure an adequate amount of drug entered the animals; doses used were: 0 or 2500 μM EGTA. This was followed by cold/freeze stress, where animals were placed at 0° C. for 10 min, and then animals were scored for survival every 12 hrs. […] Thus, like with single celled yeast and bacteria and C. elegans, a full organism level protective effect of blocking the predicted weak spots associated with cell death necrosis was also seen in fruit flies.

[3] = tested on: mouse organs (heart, brain, spleen organotypic slices); experiment: Mouse organotypic slices hypoxia stress, PI/DAPI staining; type: cell-based; conditions: 2500 μM EGTA during stress, hypoxia 2.5 hrs in N2 gas bubbled buffer
Description: For organotypic cultures, sagittal hippocampal brainslices were taken from wild type mice. Following decapitation, all organs were quickly removed, placed in ice-cold buffer (artificial cerebrospinal fluid (ACSF) [in mmol/L]: NaCl 125, KCl 2.4, NaHCO326, NaH2PO4 1.25, glucose 25, CaCl2 2 [0.5 mmol/L for dissection], MgCl2 1 [5 mmol/L for dissection]; bubbled with carbogen) for brain, and for all other organs Ringers buffer. For brain, to reduce the rate of cell death most dissections were carried out with high-magnesium (5 mmol/L)/low-calcium (0.5 mmol/L) ACSF. The brain was hemisected and a section was cut away by hand that was approximately 100° from the midline surface. The hemispheres were then mounted with superglue on to a slicing stage and 300 μm hippocampal slices were cut with a vibroslicer and transferred to an incubating chamber with circulating ACSF (bubbled with carbogen). All other organs were treated similarly but Ringer's buffer was used instead of ACSF. For the heart and spleen, cross sectional slices going fully across the organ were taken. The slices were incubated at 35° C. for approximately 1 hrs before the incubator was switched off and the bath was allowed to cool to room temperature. […]

[4] = tested on: HEK293 suspension culture; experiment: HEK293 suspension culture oxidative stress, PI/DAPI staining; type: cell-based, human; conditions: 2500 μM EGTA 2 hrs prior and during stress, 20 sec 1M H2O2
Protocol: HEK293 cells were detached using trypsin, washed and placed in cell culture medium. Cells were pre-treated for 2 hrs before and during stress with or without (control) EGTA 2500 μM. Cells were stressed by placing them in a 1M hydrogen peroxide solution (in cell culture medium) for 20 sec. Cells were then washed in cell culture medium and stained with PI as well as DAPI to visualise all cell nuclei (including intact cell nuclei), and placed on a microscope slide under a coverslip and imaged.
For HEK293 suspension culture, cells were treated with a high dosage of EGTA 2 hrs prior to stress as well as during the stress. Stress was exposure to 1M hydrogen peroxide alongside untreated controls. Cells were then stained with DAPI and PI and Normarski and epifluoresence imaging was performed.

[5] = tested on: Hepg2s spheroids; experiment: Hepg2s spheroids made by hanging drop technique, necrotic core formation; type: cell-based, human
Protocol: Multi-cellular spheroids were prepared using a hanging drop method. A stock solution of methylcellulose (MC) was prepared by dissolving 1.2 g of MC powder (4000 cP, Sigma-Aldrich) in 100 ml of DMEM. The solution was magnetically stirred overnight at 4° C. and subsequently centrifuged at 4,000 g for 3 hrs. HepG2s cells were re-suspended in cell medium containing 20% MC stock solution at a concentration of 20,000 cells per 50 μL spheroid. 50 μL drops were subsequently pipetted onto a non-adherent petri dish (Greiner) and, replacing the lid, the dish was turned upside-down and incubated overnight at 37° C. Multi-cellular spheroids were harvested individually with a wide bore pipette or collectively by adding 5 mL cell medium to the dish, collecting and centrifuging the suspension at 300 g for 5 min and resuspending the spheroids in cell medium. Spheroids were then cultured for 5 days in 48 well plates containing 2.5% agarose gel and 400 μl cell medium. EGTA was added at 0 and 2500 μM to both the spheroid pre-cursor solution and the cell culture medium. At day 3 and day 5 the spheroids were imaged and assessed.
Next, 3D cell culture was employed using Hepg2 cells and a standard hanging drop protocol of spheroid production. […] Necrotic cores disrupt physiology, and a challenge is vasculature formation faster than necrotic core formation. […]

## O=C(O)CN(CCOCCOCCN(CC(=O)O)CC(=O)O)CC(=O)O [EGTA, ethylene glycol-bis(β-aminoethyl ether)-N,N,N′,N′-tetraacetic acid]
[1]
  movement defects post stress: reduced movement defects
[2]
  D. melanogaster death / survival following cold/freeze stress: death is prevented; also recorded: significant protective effect
[3]
  % of necrotic cells (PI stain) relative to all cells (DAPI stain): necrosis cell death is prevented; also recorded: marked improvement in all 3 tissue types
[4]
  % of necrotic cells (PI stain) relative to all cells (DAPI stain): necrosis cell death is prevented; also recorded: significantly reduced
[5]; hanging drop Hepg2s spheroids, 2500 μM EGTA or 5000 μM EGTA, 5 days
  necrotic core formation: no necrotic core even after 5 days
[5]; hanging drop Hepg2 spheroids, 20,000 cells, EGTA at 250 and 500 mM, day 5
  necrotic core formation: no necrotic cores being visible
